In patent publication US8399440B2, “Disease modifying anti-arthritic activity of 2-methoxyestradiol” (EntreMed, Inc., priority 2006, dated 2013):

Tested on: Arthrogen Collagen MAb-Induced Arthritis
Test: Arthrogen collagen MAb-induced arthritis (Arthrogen-CIA model of RA)
Format: in vivo, Mouse (Balb/C)
Settings: Study SMP05-046; either drug alone (2ME2 10 or 100 mg/kg/d PO; MTX 0.1 or 1 mg/kg/d IP)

pathology in the liver: No pathology
SMILES: CN(Cc1cnc2nc(N)nc(N)c2n1)c1ccc(C(=O)N[C@@H](CCC(=O)O)C(=O)O)cc1 [MTX, methotrexate, reference compound]
